# Literature values, collected in patent US8569328B1, “Compositions and methods comprising tilidine or related compounds and dextromethorphan” (Antecip Bioventures II LLC, priority 2011, dated 2013).
# Experiments:
# [1] = biological target: cytochrome P450 isozyme CYP2D6 (Homo sapiens, UniProt P10635); conditions: in vitro
# [2] = three large multicenter randomized studies; dextromethorphan added to morphine
# Sequence of cytochrome P450 isozyme CYP2D6 (P10635 whole entry): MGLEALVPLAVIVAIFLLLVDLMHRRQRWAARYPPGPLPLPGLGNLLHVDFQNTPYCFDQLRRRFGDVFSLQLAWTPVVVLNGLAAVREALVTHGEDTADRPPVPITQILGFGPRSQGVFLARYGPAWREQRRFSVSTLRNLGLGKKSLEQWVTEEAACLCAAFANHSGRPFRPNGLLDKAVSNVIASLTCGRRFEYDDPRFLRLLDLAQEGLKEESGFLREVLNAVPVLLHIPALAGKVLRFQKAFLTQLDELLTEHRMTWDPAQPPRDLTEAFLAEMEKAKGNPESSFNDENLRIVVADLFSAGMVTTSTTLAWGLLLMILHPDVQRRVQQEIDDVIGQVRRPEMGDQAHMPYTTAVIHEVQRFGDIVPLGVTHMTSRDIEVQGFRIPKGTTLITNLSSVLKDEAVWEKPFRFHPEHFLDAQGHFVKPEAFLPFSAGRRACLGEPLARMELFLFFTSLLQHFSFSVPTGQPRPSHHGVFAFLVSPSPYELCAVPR
Compound,inhibition of cytochrome P450 isozymes including CYP2D6 [1],benefit from the addition of dextromethorphan to morphine (enhancement of opioid analgesia) [2]
CCOC(=O)C1(c2ccccc2)CCC=CC1N(C)C (stereo not drawn) [tilidine],inhibit,–
nortilidine,inhibit,–
COc1ccc2c(c1)[C@]13CCCC[C@@H]1[C@H](C2)N(C)CC3 [dextromethorphan],–,failed to show any benefit
